This passage reports Ki results from US12723063B2, “GIPR-agonist compounds” (Eli Lilly and Company, priority 2019, dated 2026).

*1 amine or outer side, *2 acyl side, *3 side chain or, on linkers, in order; H or OH if unused. Where a SMILES comes first, the peptide text is derived from it. Side-chain parts run from the residue outwards. [ ]: non-standard residue; d: D form. The star is where a group is joined. C20 diacid = O=C(O)CCCCCCCCCCCCCCCCCCC(=O)*; αMePhe(2-F) = C[C@](N)(Cc1ccccc1F)C(=O)O; γGlu = O=C(O)[C@H](CCC(=O)[*:2])N[*:1]; 4Pal = N[C@@H](Cc1ccncc1)C(=O)O; αMeL = CC(C)C[C@](C)(N)C(=O)O; AEEA = NCCOCCOCC(=O)O; Aib = CC(C)(N)C(=O)O

The experiment deals with T1, human GLP-1R (Homo sapiens, UniProt P43220).
T1 construct: expressed in transfected cells; crude membranes
T1 sequence (P43220 24-463): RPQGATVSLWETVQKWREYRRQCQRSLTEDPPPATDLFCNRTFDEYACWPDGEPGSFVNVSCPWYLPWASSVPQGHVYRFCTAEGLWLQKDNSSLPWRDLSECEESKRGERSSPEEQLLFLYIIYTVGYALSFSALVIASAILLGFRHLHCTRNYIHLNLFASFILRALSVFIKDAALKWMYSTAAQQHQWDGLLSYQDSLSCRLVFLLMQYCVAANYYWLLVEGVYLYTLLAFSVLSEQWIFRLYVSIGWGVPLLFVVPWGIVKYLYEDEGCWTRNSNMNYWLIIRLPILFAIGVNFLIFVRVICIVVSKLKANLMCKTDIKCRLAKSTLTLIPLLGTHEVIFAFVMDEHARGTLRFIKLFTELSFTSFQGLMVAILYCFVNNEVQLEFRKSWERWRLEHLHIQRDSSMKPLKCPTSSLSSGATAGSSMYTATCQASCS
The experiment is described as follows: [125I]-GLP-1 binding, SPA with WGA beads, 0.1% bacitracin. The conditions noted are these: geometric mean, read-out: hGLP1R Ki. The method in brief: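 Binding buffer was 25 mM HEPES pH 7.4 with 2.5 mM CaCl2, 1 mM MgCl2, 0.1% (w/v) bacitracin, 0.003% Tween-20 and EDTA-free protease inhibitors. Four-parameter regression gave IC50, converted to Ki (geometric mean, SEM, n independent days).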
Consider `CC[C@H](C)[C@H](NC(=O)[C@H](Cc1ccccc1)NC(=O)[C@@H](NC(=O)CNC(=O)[C@H](CCC(=O)O)NC(=O)C(C)(C)NC(=O)[C@@H](N)Cc1ccc(O)cc1)[C@@H](C)O)C(=O)N[C@@H](CO)C(=O)N[C@@H](CC(=O)O)C(=O)N[C@@H](Cc1ccc(O)cc1)C(=O)N[C@@H](CO)C(=O)N[C@H](C(=O)N[C@@](C)(CC(C)C)C(=O)N[C@@H](CC(C)C)C(=O)N[C@@H](CC(=O)O)C(=O)N[C@@H](CCCCN)C(=O)N[C@@H](CCCCNC(=O)COCCOCCNC(=O)COCCOCCNC(=O)CC[C@H](NC(=O)CCCCCCCCCCCCCCCCCCC(=O)O)C(=O)O)C(=O)N[C@@H](Cc1c[nH]cn1)C(=O)N[C@@H](CCC(N)=O)C(=O)NC(C)(C)C(=O)N[C@@H](CCC(=O)O)C(=O)N[C@@H](Cc1ccccc1)C(=O)N[C@H](C(=O)N[C@@H](CCC(=O)O)C(=O)N[C@@H](Cc1ccncc1)C(=O)N[C@@H](CC(C)C)C(=O)N[C@@H](CC(C)C)C(=O)N[C@@H](C)C(=O)N[C@@H](CCC(N)=O)C(=O)NCC(=O)N1CCC[C@H]1C(=O)N[C@@H](CO)C(=O)N[C@@H](CO)C(=O)NCC(=O)N[C@@H](C)C(=O)N1CCC[C@H]1C(=O)N1CCC[C@H]1C(=O)N1CCC[C@H]1C(=O)N[C@@H](CO)C(N)=O)C(C)C)[C@@H](C)CC` [Example 57] (H-Y[Aib]EGTFISDYSI[αMeL]LDKK([AEEA-AEEA-γGlu-C20 diacid])HQ[Aib]EFVE[4Pal]LLAQGPSSGAPPPS-NH2), for which the Ki (in general, a dissociation constant, usually derived from enzyme kinetics or from competition with a known ligand) came out at 280 nM.
With `CC[C@H](C)[C@H](NC(=O)[C@H](Cc1ccccc1)NC(=O)[C@@H](NC(=O)CNC(=O)[C@H](CCC(=O)O)NC(=O)C(C)(C)NC(=O)[C@@H](N)Cc1ccc(O)cc1)[C@@H](C)O)C(=O)N[C@@H](CO)C(=O)N[C@@H](CC(=O)O)C(=O)N[C@@H](Cc1ccc(O)cc1)C(=O)N[C@@H](CO)C(=O)N[C@H](C(=O)N[C@@](C)(CC(C)C)C(=O)N[C@@H](CC(C)C)C(=O)N[C@@H](CC(=O)O)C(=O)N[C@@H](CCCCN)C(=O)N[C@@H](CCCCNC(=O)COCCOCCNC(=O)COCCOCCNC(=O)CC[C@H](NC(=O)CCCCCCCCCCCCCCCCCCC(=O)O)C(=O)O)C(=O)N[C@@H](Cc1c[nH]cn1)C(=O)N[C@@H](CCC(N)=O)C(=O)NC(C)(C)C(=O)N[C@@H](CC(=O)O)C(=O)N[C@@H](Cc1ccccc1)C(=O)N[C@H](C(=O)N[C@@H](CCC(=O)O)C(=O)N[C@@H](Cc1ccncc1)C(=O)N[C@@H](CC(C)C)C(=O)N[C@@H](CC(C)C)C(=O)N[C@@H](CCC(=O)O)C(=O)NCC(=O)NCC(=O)N1CCC[C@H]1C(=O)N[C@@H](CO)C(=O)N[C@@H](CO)C(=O)NCC(=O)N[C@@H](C)C(=O)N1CCC[C@H]1C(=O)N1CCC[C@H]1C(=O)N1CCC[C@H]1C(=O)N[C@@H](CO)C(N)=O)C(C)C)[C@@H](C)CC` [Example 47] (H-Y[Aib]EGTFISDYSI[αMeL]LDKK([AEEA-AEEA-γGlu-C20 diacid])HQ[Aib]DFVE[4Pal]LLEGGPSSGAPPPS-NH2), the Ki stood at 320 nM.
The figure for `CC[C@H](C)[C@H](NC(=O)[C@H](CO)NC(=O)[C@H](Cc1ccc(O)cc1)NC(=O)[C@H](CC(=O)O)NC(=O)[C@H](CO)NC(=O)[C@@H](NC(=O)[C@](C)(Cc1ccccc1F)NC(=O)[C@@H](NC(=O)CNC(=O)[C@H](CCC(=O)O)NC(=O)C(C)(C)NC(=O)[C@@H](N)Cc1ccc(O)cc1)[C@@H](C)O)[C@@H](C)CC)C(=O)N[C@@](C)(CC(C)C)C(=O)N[C@@H](CC(C)C)C(=O)N[C@@H](CC(=O)O)C(=O)N[C@@H](CCCCN)C(=O)N[C@@H](CCCCNC(=O)COCCOCCNC(=O)COCCOCCNC(=O)CC[C@H](NC(=O)CCCCCCCCCCCCCCCCCCC(=O)O)C(=O)O)C(=O)N[C@@H](Cc1c[nH]cn1)C(=O)N[C@@H](CCC(N)=O)C(=O)NC(C)(C)C(=O)N[C@@H](CC(=O)O)C(=O)N[C@@H](Cc1ccccc1)C(=O)N[C@H](C(=O)N[C@@H](CCC(=O)O)C(=O)N[C@@H](Cc1ccncc1)C(=O)N[C@@H](CC(C)C)C(=O)N[C@@H](CC(C)C)C(=O)N[C@@H](C)C(=O)NCC(=O)NCC(=O)N1CCC[C@H]1C(=O)N[C@@H](CO)C(=O)N[C@@H](CO)C(=O)NCC(=O)N[C@@H](C)C(=O)N1CCC[C@H]1C(=O)N1CCC[C@H]1C(=O)N1CCC[C@H]1C(=O)N[C@@H](CO)C(N)=O)C(C)C` [Example 51] (H-Y[Aib]EGT[αMePhe(2-F)]ISDYSI[αMeL]LDKK([AEEA-AEEA-γGlu-C20 diacid])HQ[Aib]DFVE[4Pal]LLAGGPSSGAPPPS-NH2) is 54.1 nM; for `CC[C@H](C)[C@H](NC(=O)[C@H](Cc1ccccc1)NC(=O)[C@@H](NC(=O)CNC(=O)[C@H](CCC(=O)O)NC(=O)C(C)(C)NC(=O)[C@@H](N)Cc1ccc(O)cc1)[C@@H](C)O)C(=O)N[C@@H](CO)C(=O)N[C@@H](CC(=O)O)C(=O)N[C@@H](Cc1ccc(O)cc1)C(=O)N[C@@H](CO)C(=O)N[C@H](C(=O)N[C@@](C)(CC(C)C)C(=O)N[C@@H](CC(C)C)C(=O)N[C@@H](CC(=O)O)C(=O)N[C@@H](CCCCN)C(=O)N[C@@H](CCCCNC(=O)COCCOCCNC(=O)COCCOCCNC(=O)CC[C@H](NC(=O)CCCCCCCCCCCCCCCCCCC(=O)O)C(=O)O)C(=O)N[C@@H](Cc1c[nH]cn1)C(=O)N[C@@H](CCC(N)=O)C(=O)NC(C)(C)C(=O)N[C@@H](CC(=O)O)C(=O)N[C@@H](Cc1ccccc1)C(=O)N[C@H](C(=O)N[C@@H](CCC(=O)O)C(=O)N[C@@H](Cc1ccc(O)cc1)C(=O)N[C@@H](CC(C)C)C(=O)N[C@@H](CC(C)C)C(=O)N[C@@H](CCC(=O)O)C(=O)NCC(=O)NCC(=O)N1CCC[C@H]1C(=O)N[C@@H](CO)C(=O)N[C@@H](CO)C(=O)NCC(=O)N[C@@H](C)C(=O)N1CCC[C@H]1C(=O)N1CCC[C@H]1C(=O)N1CCC[C@H]1C(=O)N[C@@H](CO)C(N)=O)C(C)C)[C@@H](C)CC` [Example 69] (H-Y[Aib]EGTFISDYSI[αMeL]LDKK([AEEA-AEEA-γGlu-C20 diacid])HQ[Aib]DFVEYLLEGGPSSGAPPPS-NH2) it is 144 nM; for `CC[C@H](C)[C@H](NC(=O)[C@H](CO)NC(=O)[C@H](Cc1ccc(O)cc1)NC(=O)[C@H](CC(=O)O)NC(=O)[C@H](CO)NC(=O)[C@@H](NC(=O)[C@](C)(Cc1ccccc1F)NC(=O)[C@@H](NC(=O)CNC(=O)[C@H](CCC(=O)O)NC(=O)C(C)(C)NC(=O)[C@@H](N)Cc1ccc(O)cc1)[C@@H](C)O)[C@@H](C)CC)C(=O)N[C@@H](C)C(=O)N[C@@H](CC(C)C)C(=O)N[C@@H](CC(=O)O)C(=O)N[C@@H](CCCCN)C(=O)N[C@@H](CCCCNC(=O)COCCOCCNC(=O)COCCOCCNC(=O)CC[C@H](NC(=O)CCCCCCCCCCCCCCCCCCC(=O)O)C(=O)O)C(=O)N[C@@H](Cc1c[nH]cn1)C(=O)N[C@@H](CCC(N)=O)C(=O)NC(C)(C)C(=O)N[C@@H](CC(=O)O)C(=O)N[C@@H](Cc1ccccc1)C(=O)N[C@H](C(=O)N[C@@H](CCC(=O)O)C(=O)N[C@@H](Cc1c[nH]c2ccccc12)C(=O)N[C@@H](CC(C)C)C(=O)N[C@@H](CC(C)C)C(=O)N[C@@H](CCC(=O)O)C(=O)N[C@H](C(=O)NCC(=O)N1CCC[C@H]1C(=O)N[C@@H](CO)C(=O)N[C@@H](CO)C(=O)NCC(=O)N[C@@H](C)C(=O)N1CCC[C@H]1C(=O)N1CCC[C@H]1C(=O)N1CCC[C@H]1C(=O)N[C@@H](CO)C(N)=O)[C@@H](C)O)C(C)C` [Example 40] (H-Y[Aib]EGT[αMePhe(2-F)]ISDYSIALDKK([AEEA-AEEA-γGlu-C20 diacid])HQ[Aib]DFVEWLLETGPSSGAPPPS-NH2) it is 302 nM.
The figure for `CC[C@H](C)[C@H](NC(=O)[C@H](Cc1ccccc1)NC(=O)[C@@H](NC(=O)CNC(=O)[C@H](CCC(=O)O)NC(=O)C(C)(C)NC(=O)[C@@H](N)Cc1ccc(O)cc1)[C@@H](C)O)C(=O)N[C@@H](CO)C(=O)N[C@@H](CC(=O)O)C(=O)N[C@@H](Cc1ccc(O)cc1)C(=O)N[C@@H](CO)C(=O)N[C@H](C(=O)N[C@@](C)(CC(C)C)C(=O)N[C@@H](CC(C)C)C(=O)N[C@@H](CC(=O)O)C(=O)N[C@@H](CCCCN)C(=O)N[C@@H](CCCCNC(=O)COCCOCCNC(=O)COCCOCCNC(=O)CC[C@H](NC(=O)CCCCCCCCCCCCCCCCCCC(=O)O)C(=O)O)C(=O)N[C@@H](Cc1c[nH]cn1)C(=O)N[C@@H](CCC(N)=O)C(=O)NC(C)(C)C(=O)N[C@@H](CC(=O)O)C(=O)N[C@@H](Cc1ccccc1)C(=O)N[C@H](C(=O)N[C@@H](CCC(=O)O)C(=O)N[C@@H](Cc1ccc(O)cc1)C(=O)N[C@@H](CC(C)C)C(=O)N[C@@H](CC(C)C)C(=O)N[C@@H](C)C(=O)NCC(=O)NCC(=O)N1CCC[C@H]1C(=O)N[C@@H](CO)C(=O)N[C@@H](CO)C(=O)NCC(=O)N[C@@H](C)C(=O)N1CCC[C@H]1C(=O)N1CCC[C@H]1C(=O)N1CCC[C@H]1C(=O)N[C@@H](CO)C(N)=O)C(C)C)[C@@H](C)CC` [Example 53] (H-Y[Aib]EGTFISDYSI[αMeL]LDKK([AEEA-AEEA-γGlu-C20 diacid])HQ[Aib]DFVEYLLAGGPSSGAPPPS-NH2) is 62.9 nM.
The figure for `CC[C@H](C)[C@H](NC(=O)[C@H](Cc1ccccc1)NC(=O)[C@@H](NC(=O)CNC(=O)[C@H](CCC(=O)O)NC(=O)C(C)(C)NC(=O)[C@@H](N)Cc1ccc(O)cc1)[C@@H](C)O)C(=O)N[C@@H](CO)C(=O)N[C@@H](CC(=O)O)C(=O)N[C@@H](Cc1ccc(O)cc1)C(=O)N[C@@H](CO)C(=O)N[C@H](C(=O)N[C@@](C)(CC(C)C)C(=O)N[C@@H](CC(C)C)C(=O)N[C@@H](CC(=O)O)C(=O)N[C@@H](CCCCN)C(=O)N[C@@H](CCCCNC(=O)COCCOCCNC(=O)COCCOCCNC(=O)CC[C@H](NC(=O)CCCCCCCCCCCCCCCCCCC(=O)O)C(=O)O)C(=O)N[C@@H](Cc1c[nH]cn1)C(=O)N[C@@H](CCC(N)=O)C(=O)NC(C)(C)C(=O)N[C@@H](CCC(=O)O)C(=O)N[C@@H](Cc1ccccc1)C(=O)N[C@H](C(=O)N[C@@H](CCC(=O)O)C(=O)N[C@@H](Cc1ccncc1)C(=O)N[C@@H](CC(C)C)C(=O)N[C@@H](CC(C)C)C(=O)N[C@@H](C)C(=O)N[C@@H](C)C(=O)NCC(=O)N1CCC[C@H]1C(=O)N[C@@H](CO)C(=O)N[C@@H](CO)C(=O)NCC(=O)N[C@@H](C)C(=O)N1CCC[C@H]1C(=O)N1CCC[C@H]1C(=O)N1CCC[C@H]1C(=O)N[C@@H](CO)C(N)=O)C(C)C)[C@@H](C)CC` [Example 59] is 109 nM.
